Measurements published in PubChem BioAssay AID1598.
Results filed as inconclusive are left out.

These molecules were tested on SMN2 vs SMN1 luciferase splicing reporter cells (assay: enhancers of SMN2 over SMN1 splicing, cell-based, SMN2/SMN1 luciferase reporters (AID 1598)). Settings: measured here: SMN luciferase EC50 follow-up.

| SMILES | EC50 |
| --- | --- |
| CC[C@@]1(O)C[C@H](OC2CC(N(C)C)C(OC3CC(O)C(OC4CCC(=O)C(C)O4)C(C)O3)C(C)O2)c2c(cc3c(c2O)C(=O)c2c(O)cccc2C3=O)[C@H]1C(=O)OC (some centres not stated) | 7000 nM |
| O=C1C=C2C(=CCOC2O)O1 (configuration not stated) | 5000 nM |
| O[N+]1=CC=CCC1=S.On1ccccc1=S.[Zn] | 1250 nM |
| CC[C@@]1(O)C(=O)OCc2c1cc1n(c2=O)Cc2cc3ccccc3nc2-1 | 2500 nM |
| CC(C(=O)O)c1ccc(N2Cc3ccccc3C2=O)cc1 (configuration not stated) | 600 nM |
| CO[C@@]1(NC(=O)Cc2cccs2)C(=O)N2C(C(=O)O)=C(COC(N)=O)CS[C@@H]21 | 2500 nM |
| NC12CC3CC(CC(C3)C1)C2 | 400 nM |
